In patent US7381521B2, “Anti-pathogenic composition useful in blood preservation” (Altachem Pharma Ltd., priority 2001, dated 2008):

Tests used:
S. aureus ATCC 6538 = experiment: Test 2 (DGHM), growth inhibition by dilutions, 72 hours at 37° C.; type: cell-based, Staphylococcus aureus
Description: (§1) Another test was carried out a basis of the following solutions • 100 ml of a 0.1% solution of chlorohexidine digluconate (pH 6); and • 100 ml of a 0.1% solution of Bardac22®.
(§2) The activity of these solutions, alone or in combination, was more particularly tested in respect of Staphylococcus aureus ATCC 6538, Escherichia coli ATCC 11229 and Candida albicans ATCC 10231.
(§3) The tests were conducted in accordance with the procedure described in Chapter I/2.1 and 2.2 of Tichtlinien für die Prüfung und Bewertung chemischer Desinfektionsverfahren der DGHM/Guidelines for Testing and Evaluating Chemical Disinfection Processes of DGHM as at 1.1, 1981.
(§4) Tables IX, X and XI respectively illustrate the bactericidal and fungicidal activity of a 0.1% aqueous solution of chlorohexidine digluconate, a 0.1% aqueous solution of Bardac22® and a mixture of equal parts of both compounds. The procedures of which these Tables illustrate the results comprise incubation of 72 hours at 37° C. and the use of the following inactivating substances as controls: • A: 3% Tween®80+0.3% lecithin+0.1% cysteine • B: 3% Tween®80+3% saponin+0.1% cysteine+0.1% histidine; • C: 3% Tween®80+0.3% lecithin+0.1% histidine+0.5% sodium thiosulphate.
(§5) In these Tables, the sign “+” indicates an increase and the sign “−” denotes the absence of growth.

E. coli ATCC 11229 = experiment: as above; type: cell-based, Escherichia coli
Description: as §1, §2, §3, §4, §5

[1] = test system: Candida albicans ATCC 1031; experiment: as above; type: cell-based
Description: as §1, §2, §3, §4, §5

C. albicans ATCC 1031 = experiment: Test 2 (DGHM), action as a function of disinfection time at 22° C., 8 × 10^7 organisms/ml; type: cell-based, Candida albicans
Description: as §1, §2, §3

[2] = 0.00625% vol/vol, inactivator A
[3] = 0.00625% vol/vol, inactivator B
[4] = 0.00625% vol/vol, inactivator C
[5] = 0.00625% vol/vol, no inactivator
[6] = 0.0125% vol/vol, no inactivator

Compound: [H]/N=C(\N/C(=N/[H])NCCCCCCNC(=N)NC(=N)Nc1ccc(Cl)cc1)Nc1ccc(Cl)cc1 [Chlorhexidine, chlorohexidine digluconate, reference compound]
- concentration of active substance inhibiting growth (S. aureus ATCC 6538): 0.0005%
- dilution of the 0.1% solution inhibiting growth (S. aureus ATCC 6538): 0.5%
- growth (S. aureus ATCC 6538; [2]): +
- growth (S. aureus ATCC 6538; [3]): +
- growth (S. aureus ATCC 6538; [4]): +
- growth (S. aureus ATCC 6538; [5]): +
- growth (S. aureus ATCC 6538; 0.0125% vol/vol, inactivator A): +
- growth (S. aureus ATCC 6538; 0.0125% vol/vol, inactivator B): +
- growth (S. aureus ATCC 6538; 0.0125% vol/vol, inactivator C): +
- growth (S. aureus ATCC 6538; [6]): +
- growth (S. aureus ATCC 6538; 0.025% vol/vol, inactivator A): +
- growth (S. aureus ATCC 6538; 0.025% vol/vol, inactivator B): +
- growth (S. aureus ATCC 6538; 0.025% vol/vol, inactivator C): +
- growth (S. aureus ATCC 6538; 0.025% vol/vol, no inactivator): +
- growth (S. aureus ATCC 6538; 0.05% vol/vol, inactivator A): +
- growth (S. aureus ATCC 6538; 0.05% vol/vol, inactivator B): +
- growth (S. aureus ATCC 6538; 0.05% vol/vol, inactivator C): +
- growth (S. aureus ATCC 6538; 0.05% vol/vol, no inactivator): +
- growth (S. aureus ATCC 6538; 0.1% vol/vol, inactivator A): +
- growth (S. aureus ATCC 6538; 0.1% vol/vol, inactivator B): +
- growth (S. aureus ATCC 6538; 0.1% vol/vol, inactivator C): +
- growth (S. aureus ATCC 6538; 0.1% vol/vol, no inactivator): +
- growth (S. aureus ATCC 6538; 0.5% vol/vol, inactivator A): +
- growth (S. aureus ATCC 6538; 0.5% vol/vol, inactivator B): +
- growth (S. aureus ATCC 6538; 0.5% vol/vol, inactivator C): +
- growth (S. aureus ATCC 6538; 0.5% vol/vol, no inactivator): −
- growth (S. aureus ATCC 6538; 1.0% vol/vol, inactivator A): +
- growth (S. aureus ATCC 6538; 1.0% vol/vol, inactivator B): +
- growth (S. aureus ATCC 6538; 1.0% vol/vol, inactivator C): +
- growth (S. aureus ATCC 6538; 1.0% vol/vol, no inactivator): −
- concentration of active substance inhibiting growth (E. coli ATCC 11229): 0.0005%
- dilution of the 0.1% solution inhibiting growth (E. coli ATCC 11229): 0.5%
- growth (E. coli ATCC 11229; [2]): +
- growth (E. coli ATCC 11229; [3]): +
- growth (E. coli ATCC 11229; [4]): +
- growth (E. coli ATCC 11229; [5]): +
- growth (E. coli ATCC 11229; 0.0125% vol/vol, inactivator A): +
- growth (E. coli ATCC 11229; 0.0125% vol/vol, inactivator B): +
- growth (E. coli ATCC 11229; 0.0125% vol/vol, inactivator C): +
- growth (E. coli ATCC 11229; [6]): +
- growth (E. coli ATCC 11229; 0.025% vol/vol, inactivator A): +
- growth (E. coli ATCC 11229; 0.025% vol/vol, inactivator B): +
- growth (E. coli ATCC 11229; 0.025% vol/vol, inactivator C): +
- growth (E. coli ATCC 11229; 0.025% vol/vol, no inactivator): +
- growth (E. coli ATCC 11229; 0.05% vol/vol, inactivator A): +
- growth (E. coli ATCC 11229; 0.05% vol/vol, inactivator B): +
- growth (E. coli ATCC 11229; 0.05% vol/vol, inactivator C): +
- growth (E. coli ATCC 11229; 0.05% vol/vol, no inactivator): +
- growth (E. coli ATCC 11229; 0.1% vol/vol, inactivator A): +
- growth (E. coli ATCC 11229; 0.1% vol/vol, inactivator B): +
- growth (E. coli ATCC 11229; 0.1% vol/vol, inactivator C): +
- growth (E. coli ATCC 11229; 0.1% vol/vol, no inactivator): +
- growth (E. coli ATCC 11229; 0.5% vol/vol, inactivator A): +
- growth (E. coli ATCC 11229; 0.5% vol/vol, inactivator B): +
- growth (E. coli ATCC 11229; 0.5% vol/vol, inactivator C): +
- growth (E. coli ATCC 11229; 0.5% vol/vol, no inactivator): −
- growth (E. coli ATCC 11229; 1.0% vol/vol, inactivator A): +
- growth (E. coli ATCC 11229; 1.0% vol/vol, inactivator B): +
- growth (E. coli ATCC 11229; 1.0% vol/vol, inactivator C): +
- growth (E. coli ATCC 11229; 1.0% vol/vol, no inactivator): −
- concentration of active substance inhibiting growth [1]: 0.001%
- dilution of the 0.1% solution inhibiting growth [1]: 1%
- growth [1, 2]: +
- growth [1, 3]: +
- growth [1, 4]: +
- growth [1, 5]: +
- growth ([1]; 0.0125% vol/vol, inactivator A): +
- growth ([1]; 0.0125% vol/vol, inactivator B): +
- growth ([1]; 0.0125% vol/vol, inactivator C): +
- growth [1, 6]: +
- growth ([1]; 0.025% vol/vol, inactivator A): +
- growth ([1]; 0.025% vol/vol, inactivator B): +
- growth ([1]; 0.025% vol/vol, inactivator C): +
- growth ([1]; 0.025% vol/vol, no inactivator): +
- growth ([1]; 0.05% vol/vol, inactivator A): +
- growth ([1]; 0.05% vol/vol, inactivator B): +
- growth ([1]; 0.05% vol/vol, inactivator C): +
- growth ([1]; 0.05% vol/vol, no inactivator): +
- growth ([1]; 0.1% vol/vol, inactivator A): +
- growth ([1]; 0.1% vol/vol, inactivator B): +
- growth ([1]; 0.1% vol/vol, inactivator C): +
- growth ([1]; 0.1% vol/vol, no inactivator): +
- growth ([1]; 0.5% vol/vol, inactivator A): +
- growth ([1]; 0.5% vol/vol, inactivator B): +
- growth ([1]; 0.5% vol/vol, inactivator C): +
- growth ([1]; 0.5% vol/vol, no inactivator): +
- growth ([1]; 1.0% vol/vol, inactivator A): +
- growth ([1]; 1.0% vol/vol, inactivator B): +
- growth ([1]; 1.0% vol/vol, inactivator C): +
- growth ([1]; 1.0% vol/vol, no inactivator): −
- growth (C. albicans ATCC 1031; 0.05% vol/vol, 1 min): +
- growth (C. albicans ATCC 1031; 0.05% vol/vol, 3 min): +
- growth (C. albicans ATCC 1031; 0.05% vol/vol, 5 min): +
- growth (C. albicans ATCC 1031; 0.05% vol/vol, 15 min): +
- growth (C. albicans ATCC 1031; 0.05% vol/vol, 30 min): +
- growth (C. albicans ATCC 1031; 0.05% vol/vol, 60 min): +
- growth (C. albicans ATCC 1031; 0.1% vol/vol, 1 min): +
- growth (C. albicans ATCC 1031; 0.1% vol/vol, 3 min): +
- growth (C. albicans ATCC 1031; 0.1% vol/vol, 5 min): +
- growth (C. albicans ATCC 1031; 0.1% vol/vol, 15 min): +
- growth (C. albicans ATCC 1031; 0.1% vol/vol, 30 min): +
- growth (C. albicans ATCC 1031; 0.1% vol/vol, 60 min): +
- growth (C. albicans ATCC 1031; 0.5% vol/vol, 1 min): +
- growth (C. albicans ATCC 1031; 0.5% vol/vol, 3 min): +
- growth (C. albicans ATCC 1031; 0.5% vol/vol, 5 min): +
- growth (C. albicans ATCC 1031; 0.5% vol/vol, 15 min): +
- growth (C. albicans ATCC 1031; 0.5% vol/vol, 30 min): +
- growth (C. albicans ATCC 1031; 0.5% vol/vol, 60 min): +
- growth (C. albicans ATCC 1031; 1% vol/vol, 1 min): +
- growth (C. albicans ATCC 1031; 1% vol/vol, 3 min): +
- growth (C. albicans ATCC 1031; 1% vol/vol, 5 min): +
- growth (C. albicans ATCC 1031; 1% vol/vol, 15 min): +
- growth (C. albicans ATCC 1031; 1% vol/vol, 30 min): +
- growth (C. albicans ATCC 1031; 1% vol/vol, 60 min): −
- growth (C. albicans ATCC 1031; 5% vol/vol, 1 min): +
- growth (C. albicans ATCC 1031; 5% vol/vol, 3 min): +
- growth (C. albicans ATCC 1031; 5% vol/vol, 5 min): +
- growth (C. albicans ATCC 1031; 5% vol/vol, 15 min): +
- growth (C. albicans ATCC 1031; 5% vol/vol, 30 min): −
- growth (C. albicans ATCC 1031; 5% vol/vol, 60 min): −
- growth (C. albicans ATCC 1031; 10% vol/vol, 1 min): +
- growth (C. albicans ATCC 1031; 10% vol/vol, 3 min): +
- growth (C. albicans ATCC 1031; 10% vol/vol, 5 min): +
- growth (C. albicans ATCC 1031; 10% vol/vol, 15 min): +
- growth (C. albicans ATCC 1031; 10% vol/vol, 30 min): −
- growth (C. albicans ATCC 1031; 10% vol/vol, 60 min): −
- growth (C. albicans ATCC 1031; 25% vol/vol, 1 min): +
- growth (C. albicans ATCC 1031; 25% vol/vol, 3 min): +
- growth (C. albicans ATCC 1031; 25% vol/vol, 5 min): +
- growth (C. albicans ATCC 1031; 25% vol/vol, 15 min): −
- growth (C. albicans ATCC 1031; 25% vol/vol, 30 min): −
- growth (C. albicans ATCC 1031; 25% vol/vol, 60 min): −
